This note sets out measurements from patent US20260285850A1, “SUBSTITUTED OXAZOLIDINONES AND IMIDAZOLINONES AS HERBICIDES” (FMC CORPORATION, priority 2023, published 2026).

The structures appear in SMILES notation.

Assay type in all cases: in vivo
In assay [1] the test system is ryegrass, Italian (italian ryegrass, Lolium multiflorum). In words: Test A postemergence application, visual injury rating 0-100. The following applies: Postemergence, 1000 g ai/ha, 0 to 100 scale, 10 days. Summed up: (§1)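 Grow plants in loam soil blended with sand. Apply formulated compound (non-phytotoxic solvent, surfactant) as a directed soil spray before emergence, or to plants at the one- to two-leaf stage after emergence. Hold in greenhouse 10 days, then rate injury visually versus untreated controls on a 0-100 scale.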

The test system of assay [2] is foxtail, giant (giant foxtail, Setaria faberi). The description is as above. The following applies: 1000 g ai/ha, 0 to 100 scale, 10 days. Put shortly: as §1
The subject of assay [3] is palmer (palmer amaranth, palmer pigweed, Amaranthus palmeri). Described as above. The following applies: Postemergence, 1000 g ai/ha, 0 to 100 scale, 10 days. Summed up: as §1
The test system of assay [4] is horseweed (Erigeron canadensis). Described as above. Particulars: Postemergence, 1000 g ai/ha, 0 to 100 scale, 10 days. Summed up:
as §1

Assay [5] has as its system blackgrass (Alopecurus myosuroides). The assay is described as above. Particulars: Postemergence, 1000 g ai/ha, 0 to 100 scale, 10 days. Summed up: as §1
Assay [6] deals with kochia (Bassia scoparia). Described as above. Particulars: Postemergence, 1000 g ai/ha, 0 to 100 scale, 10 days. Put shortly: as §1
The test system of assay [7] is ragweed (common ragweed, Ambrosia artemisiifolia). The assay is described as above. The following applies: Postemergence, 1000 g ai/ha, 0 to 100 scale, 10 days. Put shortly: as §1
For assay [8], the system named is barnyardgrass (Echinochloa crus-galli). Described as above. The following applies: Postemergence, 1000 g ai/ha, 0 to 100 scale, 10 days. Summed up:
as §1

In assay [9] the test system is galium (catchweed bedstraw, Galium aparine). Described as above. The following applies: Postemergence, 1000 g ai/ha, 0 to 100 scale, 10 days. Put shortly:
as §1

The test system of assay [10] is barnyardgrass (Echinochloa crusgalli). The assay is described as follows: Test B flooded paddy test, visual plant response rating 0-100. Particulars: 250 g ai/ha, Flood, applied to paddy water, evaluated after 13 days. Summed up: (§2)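 Compounds applied to standing paddy water (3 cm above soil, maintained for the test duration) on 2-leaf-stage plants; visual rating vs controls at 13 days, greenhouse.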

The subject of assay [11] is ducksalad (Heteranthera limosa). Described as above. The following applies: 250 g ai/ha, Flood, applied to paddy water, evaluated after 13 days. Put shortly: as §2
For the next assay, the system named is rice (Oryza sativa). The description is as above. The following applies: 250 g ai/ha, Flood, applied to paddy water, evaluated after 13 days. Put shortly:
as §2

In assay [12] the test system is sedge, umbrella (small-flower umbrella sedge, Cyperus difformis). The assay is described as above. Particulars: 250 g ai/ha, Flood, applied to paddy water, evaluated after 13 days. Summed up:
as §2

Assay [13] relates to ryegrass, Italian (italian ryegrass, Lolium multiflorum). The assay is described as follows: Test A preemergence soil spray, visual injury rating 0-100. The following applies: 1000 g ai/ha, 10 days, 0 = no effect, 100 = complete control. Summed up: as §1
The test system of assay [14] is foxtail, giant (giant foxtail, Setaria faberi). The description is as above. The following applies: 1000 g ai/ha, 10 days, 0 = no effect, 100 = complete control. Summed up: as §1
Assay [15] relates to palmer (palmer amaranth, palmer pigweed, Amaranthus palmeri). The description is as above. The following applies: 1000 g ai/ha, 10 days, 0 = no effect, 100 = complete control. Put shortly: as §1
Assay [16] relates to blackgrass (Alopecurus myosuroides). The assay is described as above. Particulars: 1000 g ai/ha, 10 days, 0 = no effect, 100 = complete control. Summed up:
as §1

The subject of assay [17] is kochia (Bassia scoparia). The assay is described as above. Particulars: 1000 g ai/ha, 10 days, 0 = no effect, 100 = complete control. Summed up: as §1
Assay [18] relates to ragweed (common ragweed, Ambrosia artemisiifolia). The description is as above. The following applies: 1000 g ai/ha, 10 days, 0 = no effect, 100 = complete control. Put shortly: as §1
Assay [19] deals with barnyardgrass (Echinochloa crus-galli). The assay is described as above. The following applies: 1000 g ai/ha, 10 days, 0 = no effect, 100 = complete control. Put shortly:
as §1

As for `CCCS(=O)(=O)NC(=O)C1C=CC(NC(=O)C2(C)CN(c3cc(F)cc(F)c3)C(=O)O2)C1` (stereo not shown) [Compound 50], the “Ryegrass, Italian plant response rating” value in assay [1] is 100. Moreover, the “Foxtail, Giant plant response rating” value in [2] is recorded as 90. Further, in assay [3], the “Amaranth, Palmer plant response rating” value worked out at 90. In addition, the “Horseweed plant response rating” value in assay [4] is given as 70. Further, the “Blackgrass plant response rating” value in [5] stood at 90. In addition, the “Kochia plant response rating” value in the assay with kochia (Bassia scoparia) [6] is 70. Also, the “Ragweed plant response rating” value in assay [7] amounted to 70. In addition, in [8], the “Barnyardgrass plant response rating” value was 90. For the same molecule, in [9], the “Galium plant response rating” value worked out at 80. In assay [10], the “Plant response rating, Barnyardgrass (0 to 100 scale, 0 is no effect and 100 is complete control)” value is reported as 60. In addition, the “Plant response rating, Ducksalad (0 to 100 scale, 0 is no effect and 100 is complete control)” value in [11] is on record as 70. The “Plant response rating, Rice (0 to 100 scale, 0 is no effect and 100 is complete control)” value in the assay with rice (Oryza sativa) amounted to 75. Besides, in [12], the “Plant response rating, Sedge, Umbrella (0 to 100 scale, 0 is no effect and 100 is complete control)” value is 60. In addition, the “Ryegrass, Italian plant response rating (0 to 100 scale)” value in assay [13] was 100. Besides, the “Foxtail, Giant plant response rating (0 to 100 scale)” value in assay [14] came out at 90. Also, the “Amaranth, Palmer / Pigweed, Palmer plant response rating (0 to 100 scale)” value in assay [15] is recorded as 100. For the same molecule, the “Blackgrass plant response rating (0 to 100 scale)” value in [16] was 90. Further, the “Kochia plant response rating (0 to 100 scale)” value in the assay with kochia (Bassia scoparia) [17] is 100. For the same molecule, the “Ragweed plant response rating (0 to 100 scale)” value in assay [18] came out at 50. Besides, the “Barnyardgrass plant response rating (0 to 100 scale)” value in [19] amounted to 90.

As to `CC(C)OC(=O)C1C=CC(NC(=O)C2(C)CN(c3cc(F)cc(F)c3)C(=O)O2)C1` (stereo not shown) [Compound 52], the “Ryegrass, Italian plant response rating” value in [1] is reported as 60. Further, in assay [2], the “Foxtail, Giant plant response rating” value amounted to 90. In addition, the “Amaranth, Palmer plant response rating” value in assay [3] was 90. The “Horseweed plant response rating” value in [4] is recorded as 100. In [5], the “Blackgrass plant response rating” value is 90. Moreover, the “Kochia plant response rating” value with kochia (Bassia scoparia) [6] was found to be 70. Moreover, the “Ragweed plant response rating” value in assay [7] worked out at 70. The “Barnyardgrass plant response rating” value in assay [8] was determined as 100. For the same molecule, in assay [9], the “Galium plant response rating” value worked out at 80. Moreover, in [10], the “Plant response rating, Barnyardgrass (0 to 100 scale, 0 is no effect and 100 is complete control)” value is recorded as 75. In addition, in [11], the “Plant response rating, Ducksalad (0 to 100 scale, 0 is no effect and 100 is complete control)” value amounted to 60. In the assay on rice (Oryza sativa), the “Plant response rating, Rice (0 to 100 scale, 0 is no effect and 100 is complete control)” value turned out to be 65. The “Plant response rating, Sedge, Umbrella (0 to 100 scale, 0 is no effect and 100 is complete control)” value in assay [12] is on record as 90. For the same molecule, the “Ryegrass, Italian plant response rating (0 to 100 scale)” value in assay [13] was determined as 100. In addition, the “Foxtail, Giant plant response rating (0 to 100 scale)” value in assay [14] is given as 100. The “Amaranth, Palmer / Pigweed, Palmer plant response rating (0 to 100 scale)” value in assay [15] is given as 100. Further, the “Blackgrass plant response rating (0 to 100 scale)” value in [16] is 90. Also, the “Kochia plant response rating (0 to 100 scale)” value in the assay on kochia (Bassia scoparia) [17] is recorded as 100. In assay [18], the “Ragweed plant response rating (0 to 100 scale)” value turned out to be 90. Further, the “Barnyardgrass plant response rating (0 to 100 scale)” value in assay [19] was 100.
